Columns and labels:
Experiment in all cases: KAM-matrix competition in K562 lysate;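 on 0.001 uM KAM: median log10 fold change of treatment over DMSO control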;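 on 0.01 uM KAM: median log10 fold change of treatment over DMSO control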;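 on 0.1 uM KAM: median log10 fold change of treatment over DMSO control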;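 on 1 uM KAM: median log10 fold change of treatment over DMSO control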;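 on 10 uM KAM: median log10 fold change of treatment over DMSO control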
Format in all cases: binding
CDK7 = target: T1, CDK7 (Homo sapiens, UniProt P50613)
T1 construct: endogenous in cells; host or cells: K562
T1 sequence (P50613 2-346 limits assumed): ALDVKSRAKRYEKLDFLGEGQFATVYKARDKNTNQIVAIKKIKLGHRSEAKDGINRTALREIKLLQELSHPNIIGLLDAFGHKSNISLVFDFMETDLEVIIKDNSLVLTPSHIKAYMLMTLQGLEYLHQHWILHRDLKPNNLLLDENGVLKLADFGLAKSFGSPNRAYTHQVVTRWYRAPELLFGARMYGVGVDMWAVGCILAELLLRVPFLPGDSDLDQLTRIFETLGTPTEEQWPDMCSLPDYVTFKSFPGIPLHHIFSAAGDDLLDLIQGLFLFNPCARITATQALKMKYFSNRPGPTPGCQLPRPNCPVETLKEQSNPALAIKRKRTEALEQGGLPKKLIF
T1 sequence (P51946 whole entry partner): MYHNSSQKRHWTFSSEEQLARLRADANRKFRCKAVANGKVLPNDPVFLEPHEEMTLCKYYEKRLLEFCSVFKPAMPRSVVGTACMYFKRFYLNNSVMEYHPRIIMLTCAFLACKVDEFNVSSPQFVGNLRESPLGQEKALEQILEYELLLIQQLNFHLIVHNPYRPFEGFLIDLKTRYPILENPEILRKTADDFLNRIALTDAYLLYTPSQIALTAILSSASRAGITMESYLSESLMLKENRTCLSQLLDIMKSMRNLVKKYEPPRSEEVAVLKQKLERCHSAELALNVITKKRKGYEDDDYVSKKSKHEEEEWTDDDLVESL
T1 sequence (P51948 whole entry partner): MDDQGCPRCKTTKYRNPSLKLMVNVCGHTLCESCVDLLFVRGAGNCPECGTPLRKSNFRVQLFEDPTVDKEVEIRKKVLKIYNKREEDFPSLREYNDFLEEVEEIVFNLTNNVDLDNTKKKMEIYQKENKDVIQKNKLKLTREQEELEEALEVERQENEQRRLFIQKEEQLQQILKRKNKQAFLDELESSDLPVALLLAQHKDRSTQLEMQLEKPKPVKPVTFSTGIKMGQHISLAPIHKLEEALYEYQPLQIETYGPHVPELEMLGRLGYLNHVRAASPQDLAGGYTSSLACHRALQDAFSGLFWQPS
Experimental: (§1) Supplement 12953_2017_125_MOESM1_ESM.zip/MS_Supp Info.xlsx, sheet "KAM" | column: 10 uM KAM; 1 uM KAM; 0.1 uM KAM; 0.01 uM KAM; 0.001 uM KAM; RB50

CSNK1A1 = target: T2, CSNK1A1 (Homo sapiens, UniProt P48729);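 on 0.001 uM KAM: median log10 fold change of treatment over DMSO control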;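 on 0.01 uM KAM: median log10 fold change of treatment over DMSO control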;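 on 0.1 uM KAM: median log10 fold change of treatment over DMSO control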;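 on 1 uM KAM: median log10 fold change of treatment over DMSO control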;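 on 10 uM KAM: median log10 fold change of treatment over DMSO control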
T2 construct: endogenous in cells; host or cells: K562
T2 sequence (P48729 whole entry): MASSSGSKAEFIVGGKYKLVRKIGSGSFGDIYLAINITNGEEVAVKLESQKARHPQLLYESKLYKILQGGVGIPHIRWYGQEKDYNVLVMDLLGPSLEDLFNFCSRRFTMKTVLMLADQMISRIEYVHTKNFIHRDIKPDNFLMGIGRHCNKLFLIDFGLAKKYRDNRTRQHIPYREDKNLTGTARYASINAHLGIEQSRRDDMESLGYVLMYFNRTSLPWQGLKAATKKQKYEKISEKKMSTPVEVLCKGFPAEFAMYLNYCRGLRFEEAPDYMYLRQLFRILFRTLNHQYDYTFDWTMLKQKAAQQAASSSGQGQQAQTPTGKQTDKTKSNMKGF
Experimental: as §1

FLT1 = target: T3, FLT1 (Homo sapiens, UniProt P17948);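 on 0.001 uM KAM: median log10 fold change of treatment over DMSO control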;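 on 0.01 uM KAM: median log10 fold change of treatment over DMSO control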;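 on 0.1 uM KAM: median log10 fold change of treatment over DMSO control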;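 on 1 uM KAM: median log10 fold change of treatment over DMSO control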;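 on 10 uM KAM: median log10 fold change of treatment over DMSO control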
T3 construct: endogenous in cells; host or cells: K562
T3 sequence (P17948 27-1338): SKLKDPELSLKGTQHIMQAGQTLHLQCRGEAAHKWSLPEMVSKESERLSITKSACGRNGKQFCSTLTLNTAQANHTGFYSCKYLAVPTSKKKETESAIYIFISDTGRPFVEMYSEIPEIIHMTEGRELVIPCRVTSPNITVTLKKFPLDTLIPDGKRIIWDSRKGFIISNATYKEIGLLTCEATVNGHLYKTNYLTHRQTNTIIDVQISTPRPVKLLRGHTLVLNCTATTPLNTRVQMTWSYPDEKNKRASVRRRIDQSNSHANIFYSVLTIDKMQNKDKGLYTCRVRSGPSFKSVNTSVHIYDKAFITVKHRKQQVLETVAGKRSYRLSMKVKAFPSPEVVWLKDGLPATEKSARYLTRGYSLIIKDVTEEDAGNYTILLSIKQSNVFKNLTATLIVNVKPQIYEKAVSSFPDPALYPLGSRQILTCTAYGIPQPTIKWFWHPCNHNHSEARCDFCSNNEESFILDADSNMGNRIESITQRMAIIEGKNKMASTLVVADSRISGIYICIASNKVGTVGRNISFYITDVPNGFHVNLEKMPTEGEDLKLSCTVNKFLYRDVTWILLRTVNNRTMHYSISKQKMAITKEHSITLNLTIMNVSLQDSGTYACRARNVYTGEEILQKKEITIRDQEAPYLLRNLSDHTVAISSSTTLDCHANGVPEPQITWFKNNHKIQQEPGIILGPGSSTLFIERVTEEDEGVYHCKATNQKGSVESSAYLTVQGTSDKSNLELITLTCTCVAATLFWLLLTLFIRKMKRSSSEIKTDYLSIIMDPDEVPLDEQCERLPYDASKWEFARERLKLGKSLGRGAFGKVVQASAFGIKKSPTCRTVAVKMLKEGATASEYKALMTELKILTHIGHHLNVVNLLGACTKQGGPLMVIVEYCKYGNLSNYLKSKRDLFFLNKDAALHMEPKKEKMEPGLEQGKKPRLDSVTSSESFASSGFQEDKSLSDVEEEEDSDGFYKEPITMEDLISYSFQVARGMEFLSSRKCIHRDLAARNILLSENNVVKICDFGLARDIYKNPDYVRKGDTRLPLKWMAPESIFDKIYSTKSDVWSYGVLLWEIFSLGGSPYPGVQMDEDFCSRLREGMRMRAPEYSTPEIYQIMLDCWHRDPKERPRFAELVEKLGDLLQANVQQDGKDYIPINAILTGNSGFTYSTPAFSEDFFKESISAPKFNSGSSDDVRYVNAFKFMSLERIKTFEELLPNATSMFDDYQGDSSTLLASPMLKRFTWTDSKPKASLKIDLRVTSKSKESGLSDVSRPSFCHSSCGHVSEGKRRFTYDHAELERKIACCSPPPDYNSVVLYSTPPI
Experimental: as §1

GAK = target: T4, GAK (Homo sapiens, UniProt O14976)
T4 construct: endogenous in cells; host or cells: K562 cell lysate
T4 sequence (O14976 1-1311): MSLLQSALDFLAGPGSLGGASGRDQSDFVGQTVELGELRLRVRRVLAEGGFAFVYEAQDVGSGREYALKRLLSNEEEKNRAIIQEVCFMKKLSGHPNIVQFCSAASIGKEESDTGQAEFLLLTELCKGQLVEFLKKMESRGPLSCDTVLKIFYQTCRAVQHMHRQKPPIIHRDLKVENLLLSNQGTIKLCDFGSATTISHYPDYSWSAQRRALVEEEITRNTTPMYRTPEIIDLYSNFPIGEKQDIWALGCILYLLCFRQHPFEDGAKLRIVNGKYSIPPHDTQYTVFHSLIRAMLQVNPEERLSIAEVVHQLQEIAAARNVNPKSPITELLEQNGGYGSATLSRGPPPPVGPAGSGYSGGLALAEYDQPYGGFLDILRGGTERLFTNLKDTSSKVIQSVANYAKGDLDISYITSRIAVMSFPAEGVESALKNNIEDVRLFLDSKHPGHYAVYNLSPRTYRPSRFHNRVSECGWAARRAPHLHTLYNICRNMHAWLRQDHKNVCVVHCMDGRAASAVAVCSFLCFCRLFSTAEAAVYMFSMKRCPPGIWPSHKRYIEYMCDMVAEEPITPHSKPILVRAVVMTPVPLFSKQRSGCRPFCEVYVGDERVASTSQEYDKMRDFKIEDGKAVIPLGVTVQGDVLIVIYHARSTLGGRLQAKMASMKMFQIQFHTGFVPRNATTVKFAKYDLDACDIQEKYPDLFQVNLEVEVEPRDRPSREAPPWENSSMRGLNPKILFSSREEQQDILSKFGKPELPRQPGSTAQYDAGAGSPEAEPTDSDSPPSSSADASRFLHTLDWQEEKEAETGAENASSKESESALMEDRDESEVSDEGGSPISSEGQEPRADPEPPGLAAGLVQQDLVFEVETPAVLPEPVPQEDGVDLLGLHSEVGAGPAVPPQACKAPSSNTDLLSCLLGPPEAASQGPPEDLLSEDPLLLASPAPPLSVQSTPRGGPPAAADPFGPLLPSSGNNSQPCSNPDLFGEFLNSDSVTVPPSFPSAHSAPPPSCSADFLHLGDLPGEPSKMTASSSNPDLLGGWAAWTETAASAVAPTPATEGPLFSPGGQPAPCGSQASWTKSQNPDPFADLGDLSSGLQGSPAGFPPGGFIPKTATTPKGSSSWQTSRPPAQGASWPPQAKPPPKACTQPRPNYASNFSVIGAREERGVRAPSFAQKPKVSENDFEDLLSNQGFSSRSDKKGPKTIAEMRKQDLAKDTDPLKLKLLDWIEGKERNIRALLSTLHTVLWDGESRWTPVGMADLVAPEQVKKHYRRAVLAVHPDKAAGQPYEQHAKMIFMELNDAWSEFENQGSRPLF
Experimental: as §1

IKBKE = target: T5, IKBKE (Homo sapiens, UniProt Q14164)
T5 construct: endogenous in cells; host or cells: K562 cells (lysate)
T5 sequence (Q14164 1-716): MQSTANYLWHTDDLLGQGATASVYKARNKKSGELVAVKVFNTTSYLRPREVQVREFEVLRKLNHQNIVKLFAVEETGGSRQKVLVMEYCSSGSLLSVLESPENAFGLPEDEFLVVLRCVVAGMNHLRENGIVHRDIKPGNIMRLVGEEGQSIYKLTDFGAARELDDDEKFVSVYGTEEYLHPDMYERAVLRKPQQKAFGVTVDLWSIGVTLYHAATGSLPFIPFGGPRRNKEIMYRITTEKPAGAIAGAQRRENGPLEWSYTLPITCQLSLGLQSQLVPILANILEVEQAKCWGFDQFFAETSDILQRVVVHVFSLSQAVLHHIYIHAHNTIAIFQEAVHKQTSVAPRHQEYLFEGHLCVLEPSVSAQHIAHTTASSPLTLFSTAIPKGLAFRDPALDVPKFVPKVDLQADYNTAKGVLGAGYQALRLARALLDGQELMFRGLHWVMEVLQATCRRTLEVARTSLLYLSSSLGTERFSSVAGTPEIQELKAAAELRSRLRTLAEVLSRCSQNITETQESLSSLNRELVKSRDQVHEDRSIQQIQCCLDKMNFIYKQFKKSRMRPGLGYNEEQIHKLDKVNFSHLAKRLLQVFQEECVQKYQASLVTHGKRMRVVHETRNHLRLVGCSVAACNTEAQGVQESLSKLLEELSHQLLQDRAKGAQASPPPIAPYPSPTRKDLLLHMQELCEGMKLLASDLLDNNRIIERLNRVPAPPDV
Experimental: as §1

RPS6KA4 = target: T6, RPS6KA4 (Homo sapiens, UniProt O75676)
T6 construct: endogenous in cells; host or cells: K562
T6 sequence (O75676 whole entry): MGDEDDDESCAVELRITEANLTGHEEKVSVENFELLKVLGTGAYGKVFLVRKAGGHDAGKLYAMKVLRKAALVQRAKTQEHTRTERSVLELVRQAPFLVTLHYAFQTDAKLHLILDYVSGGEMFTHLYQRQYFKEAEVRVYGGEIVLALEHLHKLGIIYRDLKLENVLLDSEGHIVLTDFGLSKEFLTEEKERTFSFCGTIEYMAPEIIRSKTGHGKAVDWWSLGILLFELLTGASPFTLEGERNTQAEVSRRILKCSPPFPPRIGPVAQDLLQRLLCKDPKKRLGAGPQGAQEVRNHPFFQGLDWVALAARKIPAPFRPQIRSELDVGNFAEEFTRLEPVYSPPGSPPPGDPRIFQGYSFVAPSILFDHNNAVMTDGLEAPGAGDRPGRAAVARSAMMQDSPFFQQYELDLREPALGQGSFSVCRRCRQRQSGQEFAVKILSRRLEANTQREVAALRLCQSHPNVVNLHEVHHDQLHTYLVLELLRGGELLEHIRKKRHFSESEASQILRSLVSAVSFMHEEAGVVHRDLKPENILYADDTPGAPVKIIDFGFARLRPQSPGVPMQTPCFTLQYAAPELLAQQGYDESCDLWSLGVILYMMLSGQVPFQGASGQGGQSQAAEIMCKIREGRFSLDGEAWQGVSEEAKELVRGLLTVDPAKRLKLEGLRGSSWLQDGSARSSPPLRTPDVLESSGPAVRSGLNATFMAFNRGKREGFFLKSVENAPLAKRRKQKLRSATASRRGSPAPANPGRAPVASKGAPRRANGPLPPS
Experimental: as §1

[1] = read-out: RB50 (the source's name)
[2] = KAM 0.001-10 uM, read-out: RB50 (the source's name)

## N#CCc1ccc(Nc2nc(NCCCN)cc(Nc3cc(C4CC4)[nH]n3)n2)cc1 [KAM]
CDK7; 0.001 uM KAM
  median Log10 fold change: -0.0273
CDK7; 0.01 uM KAM
  median Log10 fold change: -0.01722
CDK7; 0.1 uM KAM
  median Log10 fold change: -0.1187
CDK7; 1 uM KAM
  median Log10 fold change: -0.275
CDK7; 10 uM KAM
  median Log10 fold change: -0.3928
CDK7; [1]
  IC50: 1660 nM
CSNK1A1; [2]
  IC50: > 10000 nM
CSNK1A1; relative to 0 uM KAM = 0
  0.001 uM KAM: 0.05671
  0.01 uM KAM: -0.02341
  0.1 uM KAM: 0.02518
  1 uM KAM: 0.03521
  10 uM KAM: -0.008144
FLT1; [2]
  IC50: > 10000 nM
FLT1; relative to 0 uM KAM = 0
  0.001 uM KAM: -0.03836
  0.01 uM KAM: 0.0203
  0.1 uM KAM: -0.001012
  1 uM KAM: -0.1879
  10 uM KAM: -0.2168
GAK; 0.001 uM KAM
  median Log10 fold change: -0.03137
GAK; 0.01 uM KAM
  median Log10 fold change: -0.03807
GAK; 0.1 uM KAM
  median Log10 fold change: -0.2019
GAK; 1 uM KAM
  median Log10 fold change: -0.4109
GAK; 10 uM KAM
  median Log10 fold change: -0.5049
GAK; [1]
  IC50: 424 nM
IKBKE; 0.001 uM KAM
  median Log10 fold change: -0.04139
IKBKE; 0.01 uM KAM
  median Log10 fold change: -0.01605
IKBKE; 0.1 uM KAM
  median Log10 fold change: -0.1319
IKBKE; 1 uM KAM
  median Log10 fold change: -0.3552
IKBKE; 10 uM KAM
  median Log10 fold change: -0.4826
IKBKE; [1]
  IC50: 823 nM
RPS6KA4; 0.001 uM KAM
  median Log10 fold change: 0.007656
RPS6KA4; 0.01 uM KAM
  median Log10 fold change: -0.02452
RPS6KA4; 0.1 uM KAM
  median Log10 fold change: -0.1561
RPS6KA4; 1 uM KAM
  median Log10 fold change: -0.4146
RPS6KA4; 10 uM KAM
  median Log10 fold change: -0.4828
RPS6KA4; [1]
  IC50: 558 nM

— PMC5513037, “Examining the influence of specificity ligands and ATP-competitive ligands on the overall effectiveness of bivalent kinase inhibitors” (Proteome Science, 2017)
